Several values for one entry are separate records, joined by “and”; a condition that tells them apart may be missing. Equal values may be shown once. ± gives the expanded uncertainty stated by the source.
Settings: Liquid, Buoyancy - hydrostatic balance with magnetic suspension - one sinker

Cc1ccccc1 [toluene]
Settings | mass density
293.14 K, 580 kPa | 867.3 ± 0.12 kg/m3
293.14 K, 2080 kPa | 868.44 ± 0.12 kg/m3
293.14 K, 2100 kPa | 868.49 ± 0.12 kg/m3
293.14 K, 4080 kPa | 869.92 ± 0.12 kg/m3
293.14 K, 6080 kPa | 871.41 ± 0.12 kg/m3
293.14 K, 8080 kPa | 872.84 ± 0.12 kg/m3
293.14 K, 10080 kPa | 874.27 ± 0.12 kg/m3
293.14 K, 10110 kPa | 874.35 ± 0.12 kg/m3
293.14 K, 15090 kPa | 877.74 ± 0.12 kg/m3
293.14 K, 15110 kPa | 877.83 ± 0.12 kg/m3
293.14 K, 20090 kPa | 881.09 ± 0.12 kg/m3
293.14 K, 20110 kPa | 881.18 ± 0.12 kg/m3
293.14 K, 25090 kPa | 884.33 ± 0.12 kg/m3
293.14 K, 25120 kPa | 884.42 ± 0.12 kg/m3
293.14 K, 30090 kPa | 887.47 ± 0.12 kg/m3
293.14 K, 30120 kPa | 887.56 ± 0.12 kg/m3
293.15 K, 2080 kPa | 868.48 ± 0.12 kg/m3
293.15 K, 4080 kPa | 869.98 ± 0.12 kg/m3
293.15 K, 6080 kPa | 871.45 ± 0.12 kg/m3
293.15 K, 8080 kPa | 872.9 ± 0.12 kg/m3
293.15 K, 10080 kPa | 874.33 ± 0.12 kg/m3
293.15 K, 15080 kPa | 877.8 ± 0.12 kg/m3
293.15 K, 20080 kPa | 881.15 ± 0.12 kg/m3
293.15 K, 25080 kPa | 884.39 ± 0.12 kg/m3
313.14 K, 590 kPa | 848.73 ± 0.12 kg/m3
313.14 K, 2090 kPa | 850.02 ± 0.12 kg/m3
313.14 K, 4090 kPa | 851.7 ± 0.12 kg/m3
313.14 K, 6090 kPa | 853.35 ± 0.12 kg/m3
313.14 K, 8090 kPa | 854.98 ± 0.12 kg/m3
313.14 K, 10090 kPa | 856.57 ± 0.12 kg/m3
313.14 K, 15090 kPa | 860.44 ± 0.12 kg/m3
313.14 K, 20090 kPa | 864.16 ± 0.12 kg/m3
313.14 K, 25090 kPa | 867.74 ± 0.12 kg/m3
333.14 K, 590 kPa | 829.86 ± 0.12 kg/m3
333.14 K, 2090 kPa | 831.32 ± 0.12 kg/m3
333.14 K, 4090 kPa | 833.23 ± 0.12 kg/m3
333.14 K, 6090 kPa | 835.1 ± 0.12 kg/m3
333.14 K, 8090 kPa | 836.93 ± 0.12 kg/m3
333.14 K, 10090 kPa | 838.73 ± 0.12 kg/m3
333.14 K, 15090 kPa | 843.06 ± 0.12 kg/m3
333.14 K, 20090 kPa | 847.2 ± 0.12 kg/m3
333.14 K, 25090 kPa | 851.15 ± 0.12 kg/m3
333.14 K, 30090 kPa | 854.96 ± 0.12 kg/m3
353.14 K, 2090 kPa | 812.26 ± 0.11 kg/m3
353.14 K, 4090 kPa | 814.44 ± 0.11 kg/m3
353.14 K, 6090 kPa | 816.57 ± 0.11 kg/m3
353.14 K, 8090 kPa | 818.63 ± 0.11 kg/m3
353.14 K, 10090 kPa | 820.66 ± 0.11 kg/m3
353.14 K, 15090 kPa | 825.54 ± 0.11 kg/m3
353.14 K, 20090 kPa | 830.16 ± 0.12 kg/m3
353.14 K, 25090 kPa | 834.54 ± 0.12 kg/m3
353.14 K, 30090 kPa | 838.72 ± 0.12 kg/m3
373.15 K, 590 kPa | 790.76 ± 0.11 kg/m3
373.15 K, 2090 kPa | 792.7 ± 0.11 kg/m3 and 792.76 ± 0.11 kg/m3
373.15 K, 4090 kPa | 795.21 ± 0.11 kg/m3 and 795.27 ± 0.11 kg/m3
373.15 K, 6090 kPa | 797.64 ± 0.11 kg/m3 and 797.7 ± 0.11 kg/m3
373.15 K, 8090 kPa | 800 ± 0.11 kg/m3 and 800.07 ± 0.11 kg/m3
373.15 K, 10090 kPa | 802.3 ± 0.11 kg/m3 and 802.37 ± 0.11 kg/m3
373.15 K, 15080 kPa | 807.86 ± 0.11 kg/m3
373.15 K, 15090 kPa | 807.78 ± 0.11 kg/m3
373.15 K, 20080 kPa | 813.03 ± 0.11 kg/m3
373.15 K, 25080 kPa | 817.91 ± 0.11 kg/m3
373.15 K, 30080 kPa | 822.54 ± 0.11 kg/m3
373.49 K, 2100 kPa | 792.38 ± 0.11 kg/m3
373.49 K, 10110 kPa | 802.04 ± 0.11 kg/m3
373.49 K, 15110 kPa | 807.56 ± 0.11 kg/m3
373.49 K, 20120 kPa | 812.74 ± 0.11 kg/m3
373.49 K, 25120 kPa | 817.63 ± 0.11 kg/m3
373.49 K, 30120 kPa | 822.28 ± 0.11 kg/m3
